Legend:
Details in all cases: 72 h
[1] = tested on: HepG2; assay: relative viability EC50 (midpoint between 100% and the lowest measured viability); higher = less toxic
[2] = tested on: Calu-3; assay: as above
[3] = tested on: U2OS; assay: as above
[4] = tested on: Vero E6; assay: as above
[5] = tested on: Caco-2; assay: as above
[6] = tested on: HepG2; assay: drug sensitivity score (DSS) for viability; higher = more toxic; extreme values may be limits of the assay
[7] = tested on: Calu-3; assay: as above
[8] = tested on: U2OS; assay: as above
[9] = tested on: Vero E6; assay: as above
[10] = tested on: Caco-2; assay: as above
[11] = tested on: HepG2; assay: cell viability relative to DMSO; higher = less toxic
[12] = tested on: Calu-3; assay: as above
[13] = tested on: U2OS; assay: as above
[14] = tested on: Vero E6; assay: as above
[15] = tested on: Caco-2; assay: as above

| SMILES | relative viability EC50 [1] [µM] | relative viability EC50 [2] [µM] | relative viability EC50 [3] [µM] | relative viability EC50 [4] [µM] | relative viability EC50 [5] [µM] | drug sensitivity score [6] | drug sensitivity score [7] | drug sensitivity score [8] | drug sensitivity score [9] | drug sensitivity score [10] | cell viability ([11]; 1 nM) [%] | cell viability ([11]; 10 nM) [%] | cell viability ([11]; 100 nM) [%] | cell viability ([11]; 1000 nM) [%] | cell viability ([11]; 10000 nM) [%] | cell viability ([12]; 1 nM) [%] | cell viability ([12]; 10 nM) [%] | cell viability ([12]; 100 nM) [%] | cell viability ([12]; 1000 nM) [%] | cell viability ([12]; 10000 nM) [%] | cell viability ([13]; 1 nM) [%] | cell viability ([13]; 10 nM) [%] | cell viability ([13]; 100 nM) [%] | cell viability ([13]; 1000 nM) [%] | cell viability ([13]; 10000 nM) [%] | cell viability ([14]; 1 nM) [%] | cell viability ([14]; 10 nM) [%] | cell viability ([14]; 100 nM) [%] | cell viability ([14]; 1000 nM) [%] | cell viability ([14]; 10000 nM) [%] | cell viability ([15]; 1 nM) [%] | cell viability ([15]; 10 nM) [%] | cell viability ([15]; 100 nM) [%] | cell viability ([15]; 1000 nM) [%] | cell viability ([15]; 10000 nM) [%] |
| --- | --- | --- | --- | --- | --- | --- | --- | --- | --- | --- | --- | --- | --- | --- | --- | --- | --- | --- | --- | --- | --- | --- | --- | --- | --- | --- | --- | --- | --- | --- | --- | --- | --- | --- | --- |
| O=C(Nc1cc(C(F)(F)F)cc(C(F)(F)F)c1)c1cc(Cl)ccc1O [IKK-2-inhibitor-V] | 0.477 | 3.14 | 1.77 | 0.876 | 0.436 | 14.7 | 4.8 | 7.7 | 10.3 | 13.8 | 99.6 | 99.6 | 112 | 17.2 | 6.8 | 98.4 | 107 | 98.3 | 99.8 | 13.8 | 95.7 | 101 | 89.7 | 82.9 | 11.2 | 100 | 90.5 | 98.8 | 52.6 | 16.3 | 95.9 | 89.4 | 95.3 | 29.2 | 14.5 |
| O=C(NCc1ccc(Oc2ccccc2)cc1)c1nc(-c2cc(Br)c(O)c(Br)c2)no1 [IOWH032] | > 10 | > 10 | > 10 | > 10 | > 10 | 0.8 | 0 | 0 | 0.8 | 1.4 | 91.3 | 102 | 86.7 | 101 | 76.1 | 101 | 102 | 95.9 | 100 | 88.7 | 96.7 | 98.5 | 96.4 | 94.5 | 92.3 | 102 | 106 | 104 | 98.2 | 79.9 | 104 | 100 | 99.1 | 88.4 | 81 |
| O=C(Oc1ccc([N+](=O)[O-])cc1)N1CCN(Cc2cccc(Oc3ccccc3)c2)CC1 [JZL-195] | > 10 | > 10 | > 10 | > 10 | > 10 | 0.5 | 0 | 0 | 0 | 0 | 91.8 | 99.5 | 103 | 99.2 | 82.4 | 102 | 104 | 91.5 | 103 | 93.5 | 98.6 | 100 | 97.4 | 100 | 94.6 | 97.3 | 103 | 104 | 92.9 | 99.7 | 107 | 94.7 | 86.7 | 93.7 | 95.4 |
| O=C(O)c1ccc(N[C@@H]2O[C@H](CO)[C@@H](O)[C@H](O)[C@@H]2O)cc1 [K-MAP] | > 10 | > 10 | > 10 | > 10 | > 10 | 0 | 0 | 0 | 0 | 0 | 90.8 | 98.1 | 95.4 | 97.1 | 97.5 | 117 | 99.5 | 105 | 102 | 99 | 99.7 | 95.4 | 100 | 97.7 | 100 | 94.7 | 96.7 | 93.2 | 98.8 | 109 | 92.7 | 93.3 | 89.5 | 91 | 95.8 |
| CN[C@@H](C)C(=O)N[C@H](C(=O)N1CCC[C@H]1c1nc(C(=O)c2ccc(F)cc2)cs1)C1CCCCC1 [LCL-161] | > 10 | > 10 | > 10 | > 10 | > 10 | 1.8 | 2 | 0 | 0 | 0 | 93.5 | 104 | 99.8 | 83.4 | 89.8 | 106 | 102 | 97.6 | 86.4 | 77.2 | 104 | 109 | 99.7 | 97.8 | 94 | 97.8 | 102 | 97.8 | 107 | 104 | 99.9 | 97.9 | 91.9 | 103 | 95.2 |
| CCCC(CCC)C(=O)NCc1ccc2c(cnn2-c2ccccc2OC)c1 [M-25] | > 10 | > 10 | > 10 | > 10 | > 10 | 0 | 0 | 0 | 0 | 1.2 | 99.8 | 108 | 101 | 105 | 87 | 113 | 95.5 | 115 | 101 | 102 | 102 | 100 | 99.5 | 100 | 95.1 | 94.5 | 94.2 | 96.6 | 91.5 | 88.8 | 99.2 | 102 | 97.1 | 95.3 | 79.6 |

— the supplement of paper PMC13380429
